Here are results for 13 molecules from US20230310293A1, “COOLING SENSATION COMPOSITIONS” (GIVAUDAN SA, priority 2020, published 2023).

A short description of this data set: Solubility of non-natural cooling compounds in lactic acid. The format is physicochemical. The following applies: warmed to about 50° C. with gentle agitation for 1 hour per step, highest tested weight % that dissolved. The method, then: Into a 20ml vial 0.4 g of the respective non-natural cooling compound as indicated in Table 1 below have been added followed by the addition of 1.6 g lactic acid. The vial was warmed to about 50° C. with gentle agitation for 1 hour. If the respective non-natural cooling compound hasn’t dissolved, 2 g lactic acid was added (resulting in a composition comprising 10 weight % of a non-natural cooling compound), and again gentle agitated for an additional hour at about 50° C. If the non-natural cooling compound still hasn’t dissolved, 4 g of lactic acid was added (resulting in a composition comprising 5 weight % of anon-natural cooling compound), and again gentle agitated for an additional hour at about 50° C.
If the non-natural cooling compound still has not dissolved, the procedure above has been repeated, starting with 0.05 g of the non-natural cooling compound and 0.95 g of lactic acid. If still not dissolved, 1 g lactic acid was added (resulting in a composition comprising 2.5 weight % of a non-natural cooling compound). If still not dissolved further solvent was added.
If 0.4 g the non-natural cooling compound dissolved in 1.6 g lactic acid, the procedure above has been repeated, starting with 1 g of the non-natural cooling compound and 1 g lactic acid. If the respective non-natural cooling compound hasn’t dissolved, 0.5 g lactic acid was added (resulting in a composition comprising 40 weight % of a non-natural cooling compound), and again gentle agitated for an additional hour at about 50° C. If the non-natural cooling compound still hasn’t dissolved, 0.83 g of lactic acid was added (resulting in a composition comprising 30 weight % of anon-natural cooling compound), and again gentle agitated for an additional hour at about 50° C.

Consider `C=CC(C)(C)C(=O)N1CCCCC1c1ncc(-c2ccc(C)cc2)[nH]1` (stereo not shown) [2,2-dimethyl-1-(2-(5-(p-tolyl)-1H-imidazol-2-yl)piperidin-1-yl)but-3-en-1-one], for which the “Soluble solution (solubility of non-natural cooling compound in lactic acid)” value came to 30 wt %.
Take `CCc1ccc(OCC(=O)N(Cc2cccs2)c2cc[nH]n2)cc1` [2-(4-ethylphenoxy)-N-(1H-pyrazol-3-yl)-N-(thiophen-2-ylmethyl)acetamide]: the “Soluble solution (solubility of non-natural cooling compound in lactic acid)” value turned out to be 5 wt% wt %.
In the case of `CSC(C)C(=O)N1CCCCC1c1ncc(-c2ccc(C)cc2)[nH]1` (stereo not shown) [2-(methylthio)-1-(2-(5-(p-tolyl)imidazol-2-yl)piperidin-1-yl)propan-1-one], the “Soluble solution (solubility of non-natural cooling compound in lactic acid)” value was 50 wt %.
On to `CC1CCC(C(C)C)C(C(=O)NCCc2ccccn2)C1` (stereo not shown) [2-isopropyl-5-methyl-N-(2-(pyridin-2-yl)ethyl)cyclohexane-1-carboxamide], for which the “Soluble solution (solubility of non-natural cooling compound in lactic acid)” value is listed as 20 wt %.
With `CC1CCC(C(C)C)C(OC(=O)C(C)O)C1` (stereo not shown) [2-isopropyl-5-methylcyclohexyl 2-hydroxypropanoate], the “Soluble solution (solubility of non-natural cooling compound in lactic acid)” value is 20 wt% wt %.
On to `CNC(=O)C(C)(C(C)C)C(C)C` [2-isopropyl-N,2,3-trimethylbutanamide], for which the “Soluble solution (solubility of non-natural cooling compound in lactic acid)” value was determined as 20 wt% wt %.
`CCC(C)C(=O)N1CCCCC1c1ncc(-c2ccc(C)cc2)[nH]1` (stereo not shown) [2-methyl-1-(2-(5-(p-tolyl)-1H-imidazol-2-yl)piperidin-1-yl)butan-1-one]: the “Soluble solution (solubility of non-natural cooling compound in lactic acid)” value turned out to be 50 wt %.
In the case of `CSC(C)(C)C(=O)N1CCCCC1c1ncc(-c2ccc(C)cc2)[nH]1` (stereo not shown) [2-methyl-2-(methylthio)-1-(2-(5-(p-tolyl)-1H-imidazol-2-yl)piperidin-1-yl)propan-1-one], the “Soluble solution (solubility of non-natural cooling compound in lactic acid)” value was found to be 40 wt %.
Take `Cc1ccc(OCC(=O)N(Cc2cccs2)c2ccn[nH]2)cc1` [N-(1H-pyrazol-3-yl)-N-(thiophen-2-ylmethyl)-2-(p-tolyloxy)acetamide]: the “Soluble solution (solubility of non-natural cooling compound in lactic acid)” value stood at 30 wt %.
Turning to `CC(C)C1CCC(C)(C)CC1C(=O)NCC(O)c1ccccc1` (stereo not shown) [N-(2-hydroxy-2-phenylethyl)-2-isopropyl-5,5-dimethylcyclohexane-1-carboxamide], the “Soluble solution (solubility of non-natural cooling compound in lactic acid)” value is 5 wt% wt %.
As to `CC1CCC(C(C)C)C(C(=O)Nc2ccc(CC(N)=O)cc2)C1` (stereo not shown) [N-(4-(2-amino-2-oxoethyl)phenyl)-2-isopropyl-5-methylcyclohexane-1-carboxamide], the “Soluble solution (solubility of non-natural cooling compound in lactic acid)” value is given as 2.5 wt% wt %.
In the case of `CCNC(=O)C1CC(C)CCC1C(C)C` (stereo not shown) [N-Ethyl-p-menthane-3-carboxamide], the “Soluble solution (solubility of non-natural cooling compound in lactic acid)” value is given as 10 wt% wt %.
Consider `CCOC(=O)CNC(=O)C1CC(C)CCC1C(C)C` (stereo not shown) [ethyl (2-isopropyl-5-methylcyclohexane-1-carbonyl)glycinate], for which the “Soluble solution (solubility of non-natural cooling compound in lactic acid)” value came out at 20 wt% wt %.
